Patent US20240150351A1, “BICYCLIC COMPOUNDS” (Aligos Therapeutics, Inc., priority 2022, published 2024)
Structures can show the parent of a compound that is named as a salt.

How the values were obtained:
HBV = assay: HBV-DNA antiviral assay using HepG2.117 cells (intracellular HBV DNA by qPCR); assay type: cell-based, genotype D HBV; settings: 3 days incubation, HBV DNA inhibition
Protocol: (§1) The following assay procedure describes the HBV antiviral assay, using HepG2.117 cells, which carry a stably integrated genotype D HBV genome under the control of a Tet-off promoter, and intracellular HBV DNA quantification as endpoint. Cell viability is assessed in parallel by measuring the intracellular ATP content using CellTiter-Glo 2.0 (Promega).
On day 0, HepG2.117 cells (which are maintained in routine cell culture with doxycycline present in the medium at a final concentration of 1 μg/mL) are seeded in 96-well plates (white with clear bottom) at a density of 2.0×10^4 cells/well (0.1 mL/well) in medium without doxycycline to induce pgRNA transcription and subsequent formation of HBV particles. The cells are incubated at 37° C. and 5% CO2.
(§2) On day 1, medium is removed from each well, the test articles are diluted in culture medium without doxcycyline and 100 μL was added to cell culture wells (9 concentrations, 4-fold dilution). For each plate, 6 untreated (merely DMSO) wells are included. The final concentration of DMSO in the culture medium is 2%. Each plate is prepared in duplicate (one for HBV DNA extraction, one for CellTiter-Glo 2.0 measurement). The cells are incubated at 37° C. and 5% CO2 for 3 days.
(§3) On day 4, cell viability is assessed using CellTiter-Glo 2.0 and cell lysates are prepared for HBV DNA extraction and subsequent quantification by qPCR.
HBV DNA Quantification by qPCR
Medium is removed from each well and 100 μL of 0.33% NP-40 in H2O was added to each well. Plates are sealed, incubated at 4° C. for 5 mins, vortexed extensively and centrifuged briefly. Next, 35 μL of lysate is added to 65 μL QuickExtract DNA Extraction Solution (Epicentre) in a PCR plate for each well. PCR plate is incubated at 65° C. for 6 mins, 98° C. for 2 mins and finally cooled to 4° C. HBV DNA is then quantified by qPCR with HBV-specific primers and probes as specified in Table 2 using the Bio-Rad SSOAdvanced Universal Probes Supermix on a CFX96 machine (Bio-Rad). The PCR cycle program consisted of 95° C. for 3 mins, followed by 40 cycles at 95° C. for 10 sec and 60° C. for 30 sec.
A DNA standard is prepared by dilution of an IDT gBlock corresponding to the amplicon with concentrations ranging from 10^2 to 10^8 copies/input (i.e., per 4 μL) and used to generate a standard curve by plotting Cq values vs. HBV DNA standard concentration. The quantity of HBV DNA in each sample is determined by interpolating from the standard curve.
(§4) Cell viability is calculated as follows: % Cell viability=(luminescence value of test sample)/(average luminescence value of 2% DMSO control)×100%. HBV DNA inhibition was calculated as follows: 100−(HBV DNA copy number of test sample)/(average HBV DNA copy number of 2% DMSO control)×100%. No normalization to entecavir is required due to the excellent dynamic window of this assay. The CC50, EC50 and EC90 values were determined by dose-response curves fitted using non-linear regression.

[1] = Cell viability by CellTiter-Glo 2.0 (intracellular ATP content); assay type: cell-based; settings: human, HepG2.117 cells, 3 days incubation
Protocol: as §1, §2, §3
(§5) Using the other plates, the cell viability is quantified by CellTiter-Glo 2.0 according to the manufacturer's manual. In brief, 100 μL of reagent solution is added to the culture plates and shaken for 2′. The plates are incubated at rt for 10 min and luminescence signal is subsequently measured on a VarioSkan Lux (ThermoFisher) plate reader.
as §4

HepG2.117 cells = assay: as above; assay type: cell-based; settings: 3 days incubation
Protocol: as §1, §2, §3, §5, §4

C=C[C@H](C)Nc1nc2c(c(=O)n1-c1ccc(C(=O)N(C)C(=O)OCOC(=O)C[C@H](O)C(=O)O)cc1)C[C@@H](C)N(C(=O)c1ccc(Br)c(C(F)(F)F)c1)C2 [Compound 9, (S)-4-((((4-((R)-7-(4-bromo-3-(trifluoromethyl)benzoyl)-2-(((S)-but-3-en-2-yl)amino)-6-methyl-4-oxo-5,6,7,8-tetrahydropyrido[3,4-d]pyrimidin-3(4H)-yl)benzoyl)(methyl)carbamoyl)oxy)methoxy)-2-hydroxy-4-oxobutanoic acid]
EC50 (HBV; Hepatitis B virus, 72 h): ≤ 0.05 µM | CC50 at 3 days [1]: > 50 µM

C=C[C@H](C)Nc1nc2c(c(=O)n1-c1ccc(C(=O)N(C)C(=O)OCOC(=O)/C=C/C(=O)O)cc1)C[C@@H](C)N(C(=O)c1ccc(Br)c(C(F)(F)F)c1)C2 [Compound 3, (E)-4-((((4-((R)-7-(4-bromo-3-(trifluoromethyl)benzoyl)-2-(((S)-but-3-en-2-yl)amino)-6-methyl-4-oxo-5,6,7,8-tetrahydropyrido[3,4-d]pyrimidin-3(41H)-yl)benzoyl)(methyl)carbamoyl)oxy)methoxy)-4-oxobut-2-enoic acid]
EC50 (HBV; Hepatitis B virus, 72 h): ≤ 0.05 µM | CC50 at 3 days [1]: > 50 µM

C=C[C@H](C)Nc1nc2c(c(=O)n1-c1ccc(C(=O)N(C)CO)cc1)C[C@@H](C)N(C(=O)c1ccc(Br)c(C(F)(F)F)c1)C2 [Compound 8, 4-((R)-7-(4-bromo-3-(trifluoromethyl)benzoyl)-2-(((S)-but-3-en-2-yl)amino)-6-methyl-4-oxo-5,6,7,8-tetrahydropyrido[3,4-d]pyrimidin-3(4H)-yl)-N-(hydroxymethyl)-N-methylbenzamide]
EC50 (HBV; Hepatitis B virus, 72 h): ≤ 0.05 µM | CC50 at 3 days [1]: > 50 µM

C=C[C@H](C)Nc1nc2c(c(=O)n1-c1ccc(C(=O)N(C)C(=O)OCOC(=O)[C@H](N)C(C)C)cc1)C[C@@H](C)N(C(=O)c1ccc(Br)c(C(F)(F)F)c1)C2 [Compound 5, (((4-((R)-7-(4-bromo-3-(trifluoromethyl)benzoyl)-2-(((S)-but-3-en-2-yl)amino)-6-methyl-4-oxo-5,6,7,8-tetrahydropyrido[3,4-d]pyrimidin-3(4H)-yl)benzoyl)(methyl)carbamoyl)oxy)methyl D-valinate hydrochloride]
EC50 (HBV; Hepatitis B virus, 72 h): ≤ 0.05 µM | CC50 at 3 days [1]: 48.8 µM

C=C[C@H](C)Nc1nc2c(c(=O)n1-c1ccc(C(=O)N(C)C(=O)O[C@@H](C)OC(=O)[C@@H](N)C(C)C)cc1)C[C@@H](C)N(C(=O)c1ccc(Br)c(C(F)(F)F)c1)C2 (relative stereo) [Compound 6, (*S)-1-(((4-((R)-7-(4-bromo-3-(trifluoromethyl)benzoyl)-2-(((S)-but-3-en-2-yl)amino)-6-methyl-4-oxo-5,6,7,8-tetrahydropyrido[3,4-d]pyrimidin-3(4H)-yl)benzoyl)(methyl)carbamoyl)oxy)ethyl L-valinate hydrochloride]
EC50 (HBV): ≤ 0.05 µM | CC50 (HepG2.117 cells): > 50 µM

C=C[C@H](C)Nc1nc2c(c(=O)n1-c1ccc(C(=O)N(C)C(=O)OCOC(=O)[C@@H](N)C(C)C)cc1)C[C@@H](C)N(C(=O)c1ccc(Br)c(C(F)(F)F)c1)C2 [Compound 4, (((4-((R)-7-(4-bromo-3-(trifluoromethyl)benzoyl)-2-(((S)-but-3-en-2-yl)amino)-6-methyl-4-oxo-5,6,7,8-tetrahydropyrido[3,4-d]pyrimidin-3(4H)-yl)benzoyl)(methyl)carbamoyl)oxy)methyl L-valinate hydrochloride]
EC50 (HBV; Hepatitis B virus, 72 h): ≤ 0.05 µM | CC50 at 3 days [1]: > 50 µM

C=C[C@H](C)Nc1nc2c(c(=O)n1-c1ccc(C(=O)N(C)C(=O)O[C@H](OC(=O)[C@@H](N)C(C)C)C(C)C)cc1)C[C@@H](C)N(C(=O)c1ccc(Br)c(C(F)(F)F)c1)C2 (relative stereo) [Compound 10, (*S)-1-(((4-((R)-7-(4-bromo-3-(trifluoromethyl)benzoyl)-2-(((S)-but-3-en-2-yl)amino)-6-methyl-4-oxo-5,6,7,8-tetrahydropyrido[3,4-d]pyrimidin-3(4H)-yl)benzoyl)(methyl)carbamoyl)oxy)-2-methylpropyl L-valinate hydrochloride]
EC50 (HBV): ≤ 0.05 µM | CC50 (HepG2.117 cells): > 50 µM

C=C[C@H](C)Nc1nc2c(c(=O)n1-c1ccc(C(=O)N(C)C(=O)O[C@@H](OC(=O)[C@@H](N)C(C)C)C(C)C)cc1)C[C@@H](C)N(C(=O)c1ccc(Br)c(C(F)(F)F)c1)C2 (relative stereo) [Compound 11, (*R)-1-(((4-((R)-7-(4-bromo-3-(trifluoromethyl)benzoyl)-2-(((S)-but-3-en-2-yl)amino)-6-methyl-4-oxo-5,6,7,8-tetrahydropyrido[3,4-d]pyrimidin-3(4H)-yl)benzoyl)(methyl)carbamoyl)oxy)-2-methylpropyl L-valinate hydrochloride]
EC50 (HBV): ≤ 0.05 µM | CC50 (HepG2.117 cells): > 50 µM

C=C[C@H](C)Nc1nc2c(c(=O)n1-c1ccc(C(=O)N(C)C(=O)OCOP(=O)(O)O)cc1)C[C@@H](C)N(C(=O)c1ccc(Br)c(C(F)(F)F)c1)C2 [Compound 2, (phosphonooxy)methyl (4-((R)-7-(4-bromo-3-(trifluoromethyl)benzoyl)-2-(((S)-but-3-en-2-yl)amino)-6-methyl-4-oxo-5,6,7,8-tetrahydropyrido[3,4-d]pyrimidin-3(4H)-yl)benzoyl)(methyl)carbamate]
EC50 (HBV; Hepatitis B virus, 72 h): ≤ 0.05 µM | CC50 at 3 days [1]: > 50 µM

C=C[C@H](C)Nc1nc2c(c(=O)n1-c1ccc(C(=O)NC)cc1)C[C@@H](C)N(C(=O)c1ccc(Br)c(C(F)(F)F)c1)C2 [Compound 1, 4-((R)-7-(4-bromo-3-(trifluoromethyl)benzoyl)-2-(((S)-but-3-en-2-yl)amino)-6-methyl-4-oxo-5,6,7,8-tetrahydropyrido[3,4-d]pyrimidin-3(4H)-yl)-N-methylbenzamide]
EC50 (HBV; Hepatitis B virus, 72 h): ≤ 0.05 µM | CC50 at 3 days [1]: 46.8 µM

C=C[C@H](C)Nc1nc2c(c(=O)n1-c1ccc(C(=O)N(C)C(=O)O[C@H](C)OC(=O)[C@@H](N)C(C)C)cc1)C[C@@H](C)N(C(=O)c1ccc(Br)c(C(F)(F)F)c1)C2 (relative stereo) [Compound 7, (*R)-1-(((4-((R)-7-(4-bromo-3-(trifluoromethyl)benzoyl)-2-(((S)-but-3-en-2-yl)amino)-6-methyl-4-oxo-5,6,7,8-tetrahydropyrido[3,4-d]pyrimidin-3(4H)-yl)benzoyl)(methyl)carbamoyl)oxy)ethyl L-valinate hydrochloride]
EC50 (HBV): ≤ 0.05 µM | CC50 (HepG2.117 cells): > 50 µM
